Reference: PubChem BioAssay AID504322 (Emory University Molecular Libraries Screening Center, 2011)
Calls of active or inactive are those of the source. The rule behind the calls is not given here.

Each compound was assayed on CHOP reporter cell assay, percent of control (assay: CHOP reporter inhibitor potency, dose response, cell-based (AID 504322);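 note: CHO cells carrying a CHOP reporter stimulated with tunicamycin to induce ER stress; potency is for inhibition of the stress-induced reporter signal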).

| SMILES | IC50 |
| --- | --- |
| COc1cc(/C=N/NC(=O)Nc2ccccc2)ccc1OCCOc1ccccc1C | 9.34 µM (inactive) |
| Cc1[nH]n(-c2ccccc2)c(=O)c1/C=C1/C=c2ccccc2=N1 | 9.74 µM (inactive) |
| O=C1C(=C2SCCCS2)CC/C1=C\c1ccc(F)cc1 | 4.38 µM (inactive) |
| CCc1ccc(-c2cc(C(=O)N3N=C(C(F)F)CC3(O)C(F)F)c3ccccc3n2)cc1 (stereo not drawn) | 5.26 µM (inactive) |
| CCOc1ccc(-n2c(SCC(=O)Nc3ccc(Br)cc3)nc3n[nH]c(C)c3c2=N)cc1 | 8.02 µM (inactive) |
| COc1ccccc1-c1cc(C(F)(F)F)nc(S(=O)(=O)CCCC(=O)NC(C)C)n1 | 9.35 µM (inactive) |
| S=C(Nc1ccccc1)Nc1ccc(OCc2ccc(Cl)cc2Cl)cc1 | 0.33 µM |
| Cc1c(CN2CCC(CO)(CCOc3ccccc3)CC2)[nH]c2c(Cl)cccc12 | 9.13 µM (inactive) |
| C=C1C(=O)O[C@@H]2C[C@@H](C)[C@@H]3C=CC(=O)[C@@]3(C)[C@@H](OC(C)=O)[C@H]12 | 2.48 µM |
| O=Nc1ccc(O)c2ncccc12 | 8.83 µM (inactive) |
| CC(C)CC(NC(=O)c1ccc(Cl)cc1)C(=O)OCC(=O)c1ccc2c(c1)NC(=O)CO2 (stereo not drawn) | 1.6 µM |
| CCCOc1ccc(N2C(=O)CC(SC(=NC)Nc3ccc(F)cc3)C2=O)cc1 (stereo not drawn) | > 10 µM (inactive) |
| CCOC(=O)Cc1csc(NC(=O)NC2(C(F)(F)F)Oc3cc(Cl)c(Cl)cc3O2)n1 | 4.04 µM |
| O=C(Oc1ccc(O)cc1)C12CC3CC(CC(C3)C1)C2 | > 10 µM (inactive) |
| CC1(c2ccccc2)CC(C)(C)n2c(O)c(C3=NC(=S)NC3=O)c3cccc1c32 (stereo not drawn) | 9.76 µM (inactive) |
| COc1cc(N(C(=O)Cc2cccs2)C(C(=O)NC2CCCCC2)c2ccc(C)cc2)ccc1-n1cnnn1 (stereo not drawn) | 9.94 µM (inactive) |
| C=C1C(=O)C=C2CN(C(=O)c3ccccc3)[C@@](Cc3ccc(F)cc3)(C(=O)OC)[C@@H]12 | 1.16 µM |
| COc1ccc(C(CCNCc2ccc(F)cc2)c2ccc(F)cc2)cc1 (stereo not drawn) | 9.74 µM (inactive) |
| O=C(CN1C(=O)c2ccccc2S1(=O)=O)c1ccc2c(c1)OCCCO2 | 0.34 µM (inactive) |
| Cn1c(-c2cccc(OCc3ccccc3)c2)nc2c1c(=O)[nH]c(=O)n2Cc1ccccc1 | > 10 µM (inactive) |
| O=c1c(Cl)c(Cl)cnn1Cc1nnc(-c2ccccc2Br)o1 | 3.77 µM |
| O=C(OCn1ncc(Cl)c(Cl)c1=O)c1ccc(C(F)(F)F)cc1 | 9.59 µM (inactive) |
| Cc1ccc(NC(=S)NC(NC(=O)Cc2cccc3ccccc23)C(Cl)(Cl)Cl)cc1 (stereo not drawn) | > 10 µM (inactive) |
| O=C1C(Nc2ccccc2)=C/C(=N/S(=O)(=O)c2cccs2)c2ccccc21 | 2.6 µM |
| O=C1CC(Sc2nnnn2-c2ccccc2)C(=O)N1c1cccc(Cl)c1 (stereo not drawn) | > 10 µM (inactive) |

| SMILES | IC50 |
| --- | --- |
| O=C(Nc1ccc(-c2nc3ccccc3s2)cc1)C1=COCCO1 | 7.48 µM (inactive) |
| CCOc1ccc(N(CC(=O)Nc2cccc(Cl)c2)S(=O)(=O)c2c(C)noc2C)cc1 | 2.02 µM |
| CCCCC(CC)C(=O)Oc1ccc(O)c(C(C)(C)C)c1 (stereo not drawn) | 2.37 µM (inactive) |
| CC(C)(C)c1ccc(-c2n[nH]c(=S)n2C2CCCC2)cc1 | 7.55 µM (inactive) |
| C=CCn1c(C)cc(C2=NNC(=NCC)SC2)c1C | < 0.16 µM |
| Cc1ccc(-c2ccc(/C=C(\C#N)C(=O)Nc3cc(C)nn3-c3ccccc3)o2)cc1 | 6.7 µM (inactive) |
| Cc1nc(NC(=O)CSc2nc3cccnc3n2Cc2ccccc2)sc1C | > 10 µM (inactive) |
| N#Cc1nccnc1S(=O)(=O)c1cccs1 | 2.67 µM |
| Cc1ccc(C2=NN(C(=O)c3cccs3)C(c3ccccc3O)C2)cc1 (stereo not drawn) | 9.38 µM (inactive) |
| Cc1csc(NC(=O)CSc2nnc3c4ccccc4nc(C(C)(C)C)n23)n1 | 9.55 µM (inactive) |
| Cc1ccc2[nH]c3c(c2c1)CN(C(=O)CN1CCN(c2cccc(C)c2C)CC1)CC3 | 8.33 µM (inactive) |
| O=C(NC1CCCCC1)C(c1ccc(F)cc1)N(Cc1ccccc1)C(=O)CN1C(=O)c2ccccc2S1(=O)=O (stereo not drawn) | 4.85 µM |
| Cc1ccc(NC(=O)c2nc[nH]c2C(=O)N[C@@H](C)C(=O)OC(C)(C)C)cc1 | 5.12 µM (inactive) |
| O=[N+]([O-])c1ccc(-c2nc(C(Cl)Cl)c3ccccc3n2)cc1 | 0.19 µM |
| CC(=O)NCc1ccc(C(=O)CCl)s1 | 9.42 µM (inactive) |
| COc1ccc(NC(=O)/C(Cl)=C(/Cl)S(=O)Cc2ccc(Cl)cc2)cn1 (stereo not drawn) | 1.99 µM |
| CC(/C=N/n1c(C2CCCCC2)n[nH]c1=S)=C\c1ccccc1 | 5.88 µM (inactive) |
| Cc1ccc(/C=N/NC(=O)CCCOc2ccc(Cl)cc2Cl)cc1 | 7.92 µM (inactive) |
| Cc1ccc(NC(=O)CSc2nc3ccccc3c3nc(CCc4c(C)n[nH]c4C)nn23)cc1F | 9.71 µM (inactive) |
| Cc1cc(C(=O)COC(=O)c2ccccc2O)c(C)n1Cc1cccs1 | < 0.16 µM (inactive) |
| Cc1ccc(NC(=O)C(=O)NCC2OCCc3ccccc32)cc1 (stereo not drawn) | 8.99 µM (inactive) |
| Cc1cccc(OCc2nnc(SCc3nc4cc(C(F)(F)F)ccc4c(=O)[nH]3)o2)c1 | 8.17 µM (inactive) |
| COC(=O)/C(=C1/Oc2cc(C)oc(=O)c2S1)C(F)(F)F | 4.93 µM |
| CCC(=O)N1N=C(c2c(-c3ccccc3)c3cc(Cl)ccc3[nH]c2=O)CC1c1ccco1 (stereo not drawn) | 8.96 µM (inactive) |
| CCCCCCCCCCCCCCCC[n+]1cccc(C(=O)N(CC)CC)c1 | 5.06 µM (inactive) |

| SMILES | IC50 |
| --- | --- |
| CCCCCCSc1nsc(NC(=O)CCC)n1 | 9.9 µM (inactive) |
| CC(C)c1ccc(O)c(NC(=S)NC(=O)CCc2ccccc2)c1 | 2.97 µM (inactive) |
| CC(C)(C)c1ccc(-c2noc(CCC(N)=O)n2)cc1 | < 0.16 µM |
| Cc1cc(C)c(S(=O)(=O)NCCn2c(C)cc3ccccc32)c(C)c1 | 9.61 µM (inactive) |
| N=C(N)c1c(O)n(C2CCCCC2)c(=O)n(C2CCCCC2)c1=O | 2.77 µM |
| CC(C)(C)C1CCC(C(=O)OCC(=O)c2ccc[nH]2)CC1 (stereo not drawn) | 6.04 µM (inactive) |
| CCOc1ccc(C2C=C(c3ccc(C)cc3)Nc3nnnn32)cc1 (stereo not drawn) | 9.86 µM (inactive) |
| O=[N+]([O-])c1ccc(/C=N/n2c(C3CCCCC3)n[nH]c2=S)cc1 | 9.52 µM (inactive) |
| CC(=O)OCCCNc1cc(Sc2ccc(Cl)cc2)c2nonc2c1[N+](=O)[O-] | > 10 µM (inactive) |
| C=C(C)C(=O)OC1(C(F)(F)F)Oc2cc(C)ccc2NC1=O (stereo not drawn) | 5.82 µM (inactive) |
| COc1ccc(/C=C2\SC(=S)N(CCCC(=O)Nc3ccc(O)cc3)C2=O)cc1 | < 0.16 µM |
| Cc1ccc(OCC(=O)N/N=C/c2cn[nH]c2-c2ccc(Cl)c(Cl)c2)cc1 | 6.3 µM (inactive) |
| Oc1ccc(Br)cc1-c1cc(-c2ccccc2F)[nH]n1 | > 10 µM (inactive) |
| CCc1ccc(-c2nc(CSCC(=O)NCc3ccco3)c(C)o2)cc1 | < 0.16 µM |
| O=C(NC(c1ccccc1)c1cc(Cl)c2cccnc2c1O)c1cccnc1 (stereo not drawn) | 3.36 µM |
| COc1ccc(OCc2cccc(C(=O)Nn3cc([N+](=O)[O-])cn3)c2)cc1 | 0.85 µM |
| CCOC(=O)c1c(-n2c(C)cc(C=C3C(=O)NC(=S)NC3=O)c2C)sc2c1CCCC2 | 5.85 µM (inactive) |
| O=C(Cn1c(C(F)(F)F)nc2ccccc21)N=Nc1c(O)[nH]c2ccc(Br)cc12 | > 10 µM (inactive) |
| Cc1ccc(Cl)cc1NC1=C/C(=N\S(=O)(=O)c2cccs2)c2ccccc2C1=O | 3.94 µM |
| Cc1ccc(C(C(=O)NCc2ccco2)N(C(=O)CNC(=O)c2cccs2)c2c(C)cccc2C)cc1 (stereo not drawn) | > 10 µM (inactive) |
| CNc1nc(Sc2cccc(C(F)(F)F)c2)cc(C(F)(F)F)n1 | > 10 µM (inactive) |
| Cc1cc2c(cc1C)CSC(c1c(O)ccc3ccccc13)SC2 | > 10 µM (inactive) |
| O=C(Nc1cccc(F)c1)N(Cc1ccc(Cl)cc1)CC(O)C(F)(F)F (stereo not drawn) | 3.58 µM |
| COc1ccc(OCc2n(CC(=O)OC3CC(C)CCC3C(C)C)c3ccccc3[n+]2C)cc1 (stereo not drawn) | > 10 µM (inactive) |
| Cc1cccc(NC(=S)NC(NC(=O)OCc2ccccc2)C(Cl)(Cl)Cl)c1 (stereo not drawn) | 9.44 µM (inactive) |

| SMILES | IC50 |
| --- | --- |
| Cc1nn(C(C)(C)C)c(C)c1/C=N/OC(=O)Nc1ccc(Cl)cc1 | < 0.16 µM |
| COc1ccc([C@H]2Oc3cc(O)cc(O)c3C(=O)C2[C@@H]2C(=O)c3c(O)cc(O)cc3O[C@@H]2c2ccc(OC)cc2)cc1 (stereo partly drawn) | > 10 µM (inactive) |
| CC(C)(C)c1ccc(Oc2ccc(N)cc2)cc1 | < 0.16 µM (inactive) |
| CC1=C/C(=N\OS(=O)(=O)c2ccccc2)C=CC1=O | 1.43 µM |
| Cc1ccc(/C=C2\SC(=S)N(CCCC(=O)Nc3ccc(O)cc3)C2=O)cc1 | 0.17 µM |
| CCCCc1ccc(NC(=S)Nc2ccc(Cl)c(S(=O)(=O)N(C)C)c2)cc1 | > 10 µM (inactive) |
| CC(C)=CCCC1(C)C=Cc2c(c(C)cc3c2[nH]c2cc(O)ccc23)O1 (stereo not drawn) | 6.04 µM (inactive) |
| CC(C)=C1C2CCC1C(C(=O)Nc1sc(C)c(-c3ccc(C(C)C)cc3)c1C(N)=O)C2C(=O)O (stereo not drawn) | 4.8 µM |
| CC1CN(S(=O)(=O)c2ccc(C(=O)Nc3nc(-c4cc5ccccc5o4)cs3)cc2)CC(C)O1 (stereo not drawn) | 9.56 µM (inactive) |
| CCOC(=O)/C(=C\c1ccc(OC(F)F)cc1)C1=Nn2c(nnc2-c2ccc(Cl)cc2)SC1 | 3.2 µM (inactive) |
| CCCCCCn1c(=O)c(C(=O)Nc2cnccn2)c(O)c2ccccc21 | 2.64 µM |
| COc1ccccc1-c1cc(C(F)(F)F)nc(S(=O)(=O)CCCC(=O)Nc2cccnc2Cl)n1 | > 10 µM (inactive) |
| Nc1ccc(N2CCCCCC2)cc1 | > 10 µM (inactive) |
| CN(C)c1ccc(/C=C2\SC(=O)N(CCc3nnc(N)s3)C2=O)cc1 | 9.8 µM (inactive) |
| O=C(Nc1ccc(S(=O)(=O)N2CCOCC2)cc1)c1ccc(CN2CCc3ccccc3C2)cc1 | < 0.16 µM |
| O=C1C=CC(=O)N1N(c1ccccc1)c1ccccc1 | > 10 µM (inactive) |
| CCCCCCNC(=O)CC(c1ccccc1)c1cc(Br)ccc1O (stereo not drawn) | 3.52 µM |
| Cc1ccc2sc(N(CCCN(C)C)C(=O)c3nc4ccccc4s3)nc2c1C | 9.48 µM (inactive) |
| CCOC(=O)C1=C(c2ccccc2)O/C(=C(/C#N)C(F)(F)F)S1 | 6.28 µM (inactive) |
| Cc1ccc(C(=O)Nc2cnc3ccccc3c2)cc1 | 8.6 µM (inactive) |
| N#C/C(=C\c1ccc([N+](=O)[O-])o1)C(=O)Nc1ccc(F)cc1 | > 10 µM (inactive) |
| O=C(COc1ccc(Cl)cc1Cl)Nc1ccccn1 | 2.43 µM |
| CC1CCC(n2c(=S)[nH]c3ccccc3c2=O)CC1 (stereo not drawn) | > 10 µM (inactive) |
